Laboratory results reported in patent US10435371B2, “Multifunctional aminoquinoline therapeutic agent” (LOHOCLA RESEARCH CORPORATION, priority 2014, dated 2019).

Key:
[1] = molecular target: T1, CB1 Receptor (Homo sapiens, UniProt P21554); assay: PDSP radioligand displacement, [^3H]CP55940; design: species or system rat; conditions: read-out: Binding constant Ki, CB1 Receptor
T1 construct: expressed in transfected cells

[2] = molecular target: T2, GABA-A receptors (α1, β2, γ2s subunits) (UniProt P18508+P47870+P62813); assay: Two-electrode voltage clamp, GABA-A receptors expressed in Xenopus oocytes; format: cell-based, rat α1 and γ2s, human β2; conditions: FIG. 4A
T2 construct: expressed in transfected cells; host or cells: Xenopus laevis oocytes injected with capped cRNAs (α1:β2:γ2s 2:2:20 ng)
T2 sequence (P62813 28-455): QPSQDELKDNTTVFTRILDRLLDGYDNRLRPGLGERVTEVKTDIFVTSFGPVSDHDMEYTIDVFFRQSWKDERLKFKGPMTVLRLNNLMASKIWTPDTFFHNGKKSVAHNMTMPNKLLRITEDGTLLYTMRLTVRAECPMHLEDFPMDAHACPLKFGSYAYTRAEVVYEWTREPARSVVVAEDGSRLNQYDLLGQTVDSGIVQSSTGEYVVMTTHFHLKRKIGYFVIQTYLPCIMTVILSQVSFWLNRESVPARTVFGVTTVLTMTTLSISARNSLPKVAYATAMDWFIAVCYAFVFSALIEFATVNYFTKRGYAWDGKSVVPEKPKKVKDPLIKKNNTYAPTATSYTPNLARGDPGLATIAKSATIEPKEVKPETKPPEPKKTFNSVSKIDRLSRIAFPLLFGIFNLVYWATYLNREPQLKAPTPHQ
T2 sequence (P47870 26-474 isoform P47870-1 limits assumed): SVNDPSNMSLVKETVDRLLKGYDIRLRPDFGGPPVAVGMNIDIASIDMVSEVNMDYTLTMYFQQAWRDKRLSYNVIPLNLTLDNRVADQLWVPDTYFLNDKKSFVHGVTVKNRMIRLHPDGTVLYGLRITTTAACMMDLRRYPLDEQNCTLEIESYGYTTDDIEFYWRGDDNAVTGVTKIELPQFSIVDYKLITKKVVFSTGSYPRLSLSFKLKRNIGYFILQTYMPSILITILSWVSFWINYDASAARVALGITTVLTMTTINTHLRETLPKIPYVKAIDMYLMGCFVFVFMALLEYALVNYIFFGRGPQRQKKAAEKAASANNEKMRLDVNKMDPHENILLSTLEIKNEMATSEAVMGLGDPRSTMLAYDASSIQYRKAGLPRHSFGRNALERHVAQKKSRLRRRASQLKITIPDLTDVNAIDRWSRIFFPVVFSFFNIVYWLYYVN
T2 sequence (P18508 39-466): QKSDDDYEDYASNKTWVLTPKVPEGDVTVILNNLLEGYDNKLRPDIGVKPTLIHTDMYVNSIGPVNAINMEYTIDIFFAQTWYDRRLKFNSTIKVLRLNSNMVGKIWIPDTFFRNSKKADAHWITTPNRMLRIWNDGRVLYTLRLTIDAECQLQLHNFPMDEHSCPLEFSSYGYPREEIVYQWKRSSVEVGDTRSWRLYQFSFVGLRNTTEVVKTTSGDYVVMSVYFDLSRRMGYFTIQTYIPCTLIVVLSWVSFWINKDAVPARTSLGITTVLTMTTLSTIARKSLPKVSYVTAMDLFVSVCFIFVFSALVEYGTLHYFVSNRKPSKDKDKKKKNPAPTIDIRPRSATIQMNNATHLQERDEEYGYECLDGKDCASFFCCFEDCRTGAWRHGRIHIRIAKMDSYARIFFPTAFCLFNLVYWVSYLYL
Procedure: Xenopus laevis frogs were obtained from Nasco (Fort Atkinson, Wis., USA). The complementary DNAs encoding the GABAA subunits rat α1 and γ2s and human β2 were provided by Dr. M. H. Akabas and Dr. Paul Whiting, respectively. The in vitro transcription of α1, β2, and γ2s subunits was performed using mMessage mMachine® (Life Technologies, Grand Island, N.Y.). After isolation of Xenopus laevis oocytes, they were injected with capped complementary RNAs encoding α1, β2, and γ2s subunits in a ratio 2:2:20 ng. The injected oocytes were incubated at 15° C. in sterilized Barth's solution [MBS; composition: 88 mM NaCl, 1 mM KCl, 10 mM HEPES, 0.82 mM MgSO4, 2.4 mM NaHCO3, 0.91 mM CaCl2), and 0.33 mM Ca(NO3)2, pH 7.5] for 3-5 days before recording. All surgery was performed according to an approved institutional protocol. The responses of GABAARs expressed in oocytes were studied through two-electrode voltage clamp (Oocyte Clamp OC-725C, Warner Instruments, Hamden, Conn.), recording through a POWERLAB 4/30 system (ADInstruments, Colorado Springs, Colo.). The oocyte was placed in a chamber perfused with MBS, and voltage-clamped at −70 mV.

[3] = test system: rats treated with Complete Freund's Adjuvant; assay: Reversal of CFA-induced neuropathic pain (von Frey mechanical pain threshold); format: in vivo, rat; conditions: for Mechanical pain threshold, ratio to baseline: 1 hour
[4] = test system: rats treated with Complete Freund's Adjuvant; assay: Combination with morphine, CFA-induced pain, mechanical pain threshold; format: in vivo, rat; conditions: FIG. 15 Panel A
[5] = test system: rats treated with streptozotocin; assay: Combination with aspirin, STZ-induced neuropathic pain (von Frey); format: in vivo, rat; conditions: FIG. 16
Procedure: After administration of streptozotocin (STZ) as described in Example 5, rats were tested for allodynia using a von Frey apparatus. Sixty minutes prior to testing, rats were divided into four groups. Group 1 received vehicle; group 2 received DCUKA; group 3 received aspirin; and group 4 received a combination of DCUKA and aspirin.

[6] = molecular target: 5-HT2B (Serotonin Rs) (Homo sapiens, UniProt P41595); assay: PDSP radioligand binding
5-HT2B (Serotonin Rs), sequence (P41595 whole entry): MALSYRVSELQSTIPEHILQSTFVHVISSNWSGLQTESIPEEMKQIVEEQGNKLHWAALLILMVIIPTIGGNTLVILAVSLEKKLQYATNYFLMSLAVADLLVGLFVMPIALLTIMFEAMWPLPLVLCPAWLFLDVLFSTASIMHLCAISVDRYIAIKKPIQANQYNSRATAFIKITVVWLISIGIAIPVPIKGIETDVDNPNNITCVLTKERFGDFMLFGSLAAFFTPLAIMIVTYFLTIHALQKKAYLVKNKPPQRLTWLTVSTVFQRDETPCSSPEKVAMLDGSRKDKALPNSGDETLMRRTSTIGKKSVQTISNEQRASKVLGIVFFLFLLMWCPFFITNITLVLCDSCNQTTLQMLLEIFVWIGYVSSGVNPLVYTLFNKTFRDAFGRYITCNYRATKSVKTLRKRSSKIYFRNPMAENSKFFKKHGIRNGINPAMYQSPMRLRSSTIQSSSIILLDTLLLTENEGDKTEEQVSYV

[7] = molecular target: β1 (Adrenergic Rs (beta adrenergic)) (Homo sapiens, UniProt P08588); assay: PDSP radioligand binding
β1 (Adrenergic Rs (beta adrenergic)), sequence (P08588 whole entry): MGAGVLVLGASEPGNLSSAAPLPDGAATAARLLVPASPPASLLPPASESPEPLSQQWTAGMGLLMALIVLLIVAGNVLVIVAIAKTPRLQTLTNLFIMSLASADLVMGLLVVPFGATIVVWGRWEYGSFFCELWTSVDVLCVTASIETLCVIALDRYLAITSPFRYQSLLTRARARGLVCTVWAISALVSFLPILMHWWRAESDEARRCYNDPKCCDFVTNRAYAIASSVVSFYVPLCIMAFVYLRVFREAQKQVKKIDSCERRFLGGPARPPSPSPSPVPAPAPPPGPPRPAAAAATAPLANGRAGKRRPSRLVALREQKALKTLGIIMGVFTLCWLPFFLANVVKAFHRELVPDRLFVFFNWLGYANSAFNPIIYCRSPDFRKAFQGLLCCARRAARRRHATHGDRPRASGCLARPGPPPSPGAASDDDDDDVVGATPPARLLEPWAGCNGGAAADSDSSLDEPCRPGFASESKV

[8] = molecular target: mGluR5 (Metabotropic Glutamate Rs) (Homo sapiens, UniProt P41594); assay: PDSP radioligand binding
mGluR5 (Metabotropic Glutamate Rs), sequence (P41594 21-1212): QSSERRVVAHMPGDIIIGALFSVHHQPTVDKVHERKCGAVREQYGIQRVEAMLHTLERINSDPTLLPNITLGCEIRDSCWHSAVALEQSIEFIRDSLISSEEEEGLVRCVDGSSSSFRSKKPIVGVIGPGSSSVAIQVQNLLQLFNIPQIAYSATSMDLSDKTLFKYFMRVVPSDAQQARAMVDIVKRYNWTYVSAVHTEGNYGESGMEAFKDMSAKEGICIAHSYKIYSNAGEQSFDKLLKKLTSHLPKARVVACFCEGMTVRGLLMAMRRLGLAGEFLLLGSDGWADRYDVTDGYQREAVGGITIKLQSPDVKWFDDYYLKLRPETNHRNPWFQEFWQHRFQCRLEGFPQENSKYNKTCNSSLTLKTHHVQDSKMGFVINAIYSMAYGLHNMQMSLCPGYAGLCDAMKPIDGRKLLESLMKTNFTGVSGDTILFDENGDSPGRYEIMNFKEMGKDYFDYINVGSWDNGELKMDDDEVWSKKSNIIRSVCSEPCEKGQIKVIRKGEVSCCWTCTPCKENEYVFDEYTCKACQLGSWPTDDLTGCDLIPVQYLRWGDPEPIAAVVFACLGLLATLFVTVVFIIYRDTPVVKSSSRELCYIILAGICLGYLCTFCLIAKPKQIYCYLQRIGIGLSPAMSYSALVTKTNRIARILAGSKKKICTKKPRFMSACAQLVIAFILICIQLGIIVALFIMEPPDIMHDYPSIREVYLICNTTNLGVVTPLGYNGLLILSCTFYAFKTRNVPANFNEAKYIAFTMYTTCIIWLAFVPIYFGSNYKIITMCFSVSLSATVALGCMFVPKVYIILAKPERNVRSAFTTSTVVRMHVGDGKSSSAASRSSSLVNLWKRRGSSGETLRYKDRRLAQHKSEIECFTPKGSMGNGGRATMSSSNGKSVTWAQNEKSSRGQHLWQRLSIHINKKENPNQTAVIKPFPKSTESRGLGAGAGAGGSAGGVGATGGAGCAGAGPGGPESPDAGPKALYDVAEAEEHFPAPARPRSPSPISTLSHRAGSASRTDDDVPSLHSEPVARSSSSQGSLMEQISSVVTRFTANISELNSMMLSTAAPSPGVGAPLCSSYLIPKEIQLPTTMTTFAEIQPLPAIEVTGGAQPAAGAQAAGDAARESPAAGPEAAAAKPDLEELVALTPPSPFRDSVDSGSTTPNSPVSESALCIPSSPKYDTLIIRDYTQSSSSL

[9] = molecular target: Serotonin Transporter (Homo sapiens, UniProt P31645); assay: PDSP radioligand binding
Serotonin Transporter, sequence (P31645 whole entry): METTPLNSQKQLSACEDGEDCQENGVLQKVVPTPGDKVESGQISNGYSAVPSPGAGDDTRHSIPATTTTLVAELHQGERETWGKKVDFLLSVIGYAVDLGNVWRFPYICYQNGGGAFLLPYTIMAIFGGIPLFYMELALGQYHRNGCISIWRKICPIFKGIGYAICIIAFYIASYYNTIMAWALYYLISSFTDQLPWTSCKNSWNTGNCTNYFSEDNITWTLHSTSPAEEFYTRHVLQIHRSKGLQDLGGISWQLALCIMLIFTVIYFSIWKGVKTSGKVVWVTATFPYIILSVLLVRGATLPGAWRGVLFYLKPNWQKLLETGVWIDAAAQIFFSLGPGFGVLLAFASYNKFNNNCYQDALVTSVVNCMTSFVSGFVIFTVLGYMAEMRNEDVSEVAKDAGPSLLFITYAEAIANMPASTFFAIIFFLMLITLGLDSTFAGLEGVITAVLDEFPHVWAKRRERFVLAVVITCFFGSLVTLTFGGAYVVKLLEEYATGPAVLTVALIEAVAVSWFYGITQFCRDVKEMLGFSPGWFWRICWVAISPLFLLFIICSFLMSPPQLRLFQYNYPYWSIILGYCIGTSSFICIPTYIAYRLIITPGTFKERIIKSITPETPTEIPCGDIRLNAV

[10] = molecular target: V1A (Vasopressin) (Homo sapiens, UniProt P37288); assay: PDSP radioligand binding
V1A (Vasopressin), sequence (P37288 whole entry): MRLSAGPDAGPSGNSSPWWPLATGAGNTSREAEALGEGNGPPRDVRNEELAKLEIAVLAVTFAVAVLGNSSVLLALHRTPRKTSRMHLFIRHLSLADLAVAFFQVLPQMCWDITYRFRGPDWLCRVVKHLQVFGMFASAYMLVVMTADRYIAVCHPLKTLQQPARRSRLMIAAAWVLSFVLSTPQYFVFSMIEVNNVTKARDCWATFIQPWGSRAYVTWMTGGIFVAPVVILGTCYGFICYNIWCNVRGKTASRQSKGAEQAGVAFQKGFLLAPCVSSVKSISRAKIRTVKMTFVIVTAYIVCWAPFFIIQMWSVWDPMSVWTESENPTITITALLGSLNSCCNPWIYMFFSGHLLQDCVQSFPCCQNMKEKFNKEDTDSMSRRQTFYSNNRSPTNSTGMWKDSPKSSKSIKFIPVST

T1 sequence (P21554 whole entry): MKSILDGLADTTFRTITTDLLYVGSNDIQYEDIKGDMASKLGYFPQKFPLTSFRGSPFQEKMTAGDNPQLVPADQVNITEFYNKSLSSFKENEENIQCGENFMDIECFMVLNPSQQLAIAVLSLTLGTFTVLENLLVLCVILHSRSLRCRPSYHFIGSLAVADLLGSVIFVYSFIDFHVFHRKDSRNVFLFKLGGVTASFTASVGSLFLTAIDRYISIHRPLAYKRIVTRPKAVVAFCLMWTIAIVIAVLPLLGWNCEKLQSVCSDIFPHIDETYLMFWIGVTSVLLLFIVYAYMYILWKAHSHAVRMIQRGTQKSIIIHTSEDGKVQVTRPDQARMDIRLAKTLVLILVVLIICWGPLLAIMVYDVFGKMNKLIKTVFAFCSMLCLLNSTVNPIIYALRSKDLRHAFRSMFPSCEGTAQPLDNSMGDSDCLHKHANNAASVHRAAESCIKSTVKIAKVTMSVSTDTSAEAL

## O=C(O)c1cc(NC(=O)N(c2ccccc2)c2ccccc2)c2c(Cl)cc(Cl)cc2n1 [DCUKA, 5,7-dichloro-4-(3,3-diphenylureido)quinoline-2-carboxylic acid]
[1]
  Ki: 11 ± 2.7 µM
[2]
  Character of action at the GABA-A receptor: positive allosteric modulators (PAM)
[2]; co-applied with EC10 GABA
  GABA-induced chloride currents: significantly enhanced GABA-induced currents
[2]; without GABA
  Chloride currents, compound alone: no effect on chloride currents by themselves
[3]; 48-60 h after CFA, 50 mg/kg oral, three experiments combined, FIG. 7
  Mechanical pain threshold, ratio to baseline: a level not significantly different from the baseline level
[3]; 48 h after CFA, 50 mg/kg, DCUKA n=17, BCUKA n=6, FIG. 8
  Mechanical pain threshold, ratio to baseline: reversed the mechanical pain threshold to a level not significantly different from baseline
[3]; oral, 60 min, meta-analysis of five experiments, FIG. 9
  Doses that significantly reversed the CFA-induced decrease of mechanical pain threshold: ≥ 30 mg/kg
[4]
  Analgesia, each agent alone at the dose used for the combination: ineffective in producing analgesia
[4]; doses ineffective alone, injected 30 min before test, 48 h after CFA
  Reversal of CFA-induced pain, combination of DCUKA and morphine: complete reversal of inflammation-induced chronic pain
[5]; DCUKA 12.5 mg/kg plus aspirin 25 mg/kg
  Effect on allodynia, combination of DCUKA and aspirin: completely reverse the hyper-responsiveness
[5]; DCUKA 12.5 mg/kg, 60 min before test
  Effect on allodynia, alone: do not have any significant effect on allodynia
[6]
  Ki: > 10 µM
[7]
  Ki: > 10 µM
[8]
  Ki: > 10 µM
[9]
  Ki: > 10 µM
[10]
  Ki: > 10 µM
